This is an account of results in article PMC12112773, “Chemical Constituents and α-Glucosidase Inhibitory Activities of the Leaves of Embelia parviflora—In Vitro and In Silico Studies” (Life, 2025).

Assay [1] has as its target α-glucosidase. The conditions noted are these: cited from earlier work.
Assay [2] has as its target T1, α-glucosidase from Saccharomyces cerevisiae (Saccharomyces cerevisiae, UniProt P53341).
T1 construct: purchased Sigma Aldrich (St. Louis, MO, USA)
The assay is described as follows: in vitro assay of α-glucosidase enzyme inhibition (p-nitrophenyl α-D-glucopyranoside substrate). In kind it is biochemical.
Method: Enzyme α-glucosidase from Saccharomyces cerevisiae (E.C. 232-604-7) and p-nitrophenyl-α-D-glucopyranoside were purchased from Sigma Aldrich (St. Louis, MO, USA).
The in vitro assay of α-glucosidase enzyme inhibition of the E. parviflora MeOH extract and tested compounds was conducted following the methodology outlined in our earlier study [38]. Briefly, solutions of MeOH extract and isolated compounds at 256 μg/mL, 64 μg/mL, 16 μg/mL, 4 μg/mL, and 1 μg/mL concentrations were prepared using DMSO (Merck). The compound solution (2 μL) and 0.2 U/mL α-glucosidase enzyme solution (25 µL) in 120 µL phosphate buffer were mixed. After 5 min preincubation, a solution of 2.5 mM p-nitrophenyl α-D-glucopyranoside (25 µL) prepared in phosphate buffer was added. The reaction mixture was incubated at 37 °C for 30 min and was stopped by adding 0.2 M of Na2CO3 (100 µL). Enzymatic activity (the absorbance of the released p-nitrophenol) was quantified by measuring at 410 nm using a Biotek reader. The % inhibition was calculated using the following equation:Inhibition (%) = [1 − (Asample/Acontrol)] × 100
The biological experiments were performed in triplicate. The IC50 values are presented as the mean ± standard deviation (S.D) using the program Statistica 10.

Where [3] appears, read: mean ± S.D, triplicate, 37 °C, 30 min, read-out: α-Glucosidase inhibitory activity IC50.

Read-outs that look alike come from different tables or passages of the source.

By IC50 is commonly meant the midpoint of a concentration-inhibition curve.

T1 sequence (P53341 whole entry): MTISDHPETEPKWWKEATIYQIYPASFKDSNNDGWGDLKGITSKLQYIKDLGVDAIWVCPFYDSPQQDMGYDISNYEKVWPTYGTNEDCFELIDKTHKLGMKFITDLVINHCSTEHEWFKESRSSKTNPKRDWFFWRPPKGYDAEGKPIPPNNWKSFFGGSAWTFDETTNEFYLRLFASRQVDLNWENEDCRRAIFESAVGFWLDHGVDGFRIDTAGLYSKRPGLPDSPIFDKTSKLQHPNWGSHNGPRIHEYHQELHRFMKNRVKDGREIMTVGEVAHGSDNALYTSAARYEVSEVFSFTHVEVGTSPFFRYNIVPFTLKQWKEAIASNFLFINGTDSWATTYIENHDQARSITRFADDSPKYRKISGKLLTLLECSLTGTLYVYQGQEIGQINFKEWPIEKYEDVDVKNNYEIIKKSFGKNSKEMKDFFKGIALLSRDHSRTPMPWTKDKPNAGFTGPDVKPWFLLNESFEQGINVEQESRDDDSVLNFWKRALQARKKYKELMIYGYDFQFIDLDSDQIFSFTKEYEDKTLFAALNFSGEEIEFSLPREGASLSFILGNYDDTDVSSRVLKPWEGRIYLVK

Regarding `CC[C@H](CC[C@@H](C)[C@H]1CC[C@H]2[C@@H]3CC=C4C[C@@H](O)CC[C@]4(C)[C@H]3CC[C@]12C)C(C)C` [Compound 1, β-sistosterol], in assay [1], the “anti-α-glucosidase activity IC50” value is 283.67 µg/mL. Further, in assay [2] (setting [3]), the IC50 was more than 617 µM.
Take `CC[C@H](CC[C@@H](C)[C@H]1CC[C@H]2[C@@H]3CC=C4C[C@@H](O[C@@H]5O[C@H](CO)[C@@H](O)[C@H](O)[C@H]5O)CC[C@]4(C)[C@H]3CC[C@]12C)C(C)C` [Compound 2, daucosterol]: the “anti-α-glucosidase activity IC50” value in assay [1] is 247.35 µg/mL. The IC50 in assay [2] (setting [3]) is more than 444 µM.
Take `CCCCCCCCCCCCCCCC(=O)OC[C@H]1O[C@@H](O[C@H]2CC[C@@]3(C)C(=CCC4C3CC[C@@]3(C)C4CC[C@@H]3[C@H](C)/C=C/[C@@H](CC)C(C)C)C2)[C@H](O)[C@@H](O)[C@@H]1O` (stereo partly drawn) [Compound 3, 3-O-(6′-O-palmitoyl)-β-D-glucopyranosyl stigmasterol]: the concentration for half-maximal inhibition (IC50) in assay [2] (setting [3]) was more than 315 µM.
On to `C[C@H]1[C@H](C)CC[C@]2(C(=O)O)CC[C@]3(C)C(=CC[C@@H]4[C@@]5(C)CC[C@H](O)C(C)(C)[C@@H]5CC[C@]43C)[C@H]12` [Compound 4, ursolic acid], for which the manner of inhibition result in assay [1] is listed as “non-competitive”. The same molecule gave an IC50 in assay [2] of 3.07 µM.
On to `C[C@@H]1O[C@@H](Oc2c(-c3ccc(O)c(O)c3)oc3cc(O)cc(O)c3c2=O)[C@H](O)[C@H](O)[C@H]1O` [Compound 7, quercitrin], for which the IC50 in assay [1] (Dang's group, read-out: α-glucosidase inhibitory activity IC50) was 26.5 µM; in assay [2], 375 µM.
In the case of `CC1OC(Oc2c(-c3ccc(O)c(OC4OC(CO)C(O)C(O)C4O)c3)oc3cc(O)cc(O)c3c2=O)C(O)C(O)C1O` (stereo not drawn) [Compound 8, quercetin-3-rhamnoside-3′-glucoside], the IC50 in assay [2] (setting [3]) is more than 419 µM.
As for `CC1=CC(=O)CC(C)(C)[C@H]1/C=C/[C@@H](C)O` [Compound 9, (6R,9R)-9-hydroxy-4,7-megastigmadien-3-one], the IC50 in assay [2] (setting [3]) is more than 1230 µM.
For the molecule `CC(=O)C=C=C1C(C)(C)C[C@H](O)C[C@]1(C)O` [Compound 10, grasshopper ketone], the 50% inhibitory concentration (IC50) in assay [2] (setting [3]) is more than 1140 µM.
In the case of `CC1=CC(=O)CC(C)(C)[C@H]1/C=C/[C@@H](C)O[C@@H]1O[C@H](CO[C@@H]2OC[C@](O)(CO)[C@H]2O)[C@@H](O)[C@H](O)[C@H]1O` [Compound 11, (6R,7E,9R)-9-hydroxy-4,7-megastigmadien-3-one-9-O-β-D-apiofuranosyl(1->6)-β-D-glucopyranoside], the IC50 in assay [2] (setting [3]) was more than 509 µM.
Take `CC1=CC(=O)CC(C)(C)[C@@]1(O)/C=C/[C@@H](C)O` [Compound 12, vomifoliol]: in assay [1], the “α-glucosidase inhibitory activity (in words)” value is “inactive”. In assay [2], this molecule registered an IC50 of more than 1140 µM.
Take `COC(=O)/C=C/c1ccc(O)cc1` [Compound 13, methyl trans-p-coumarate]: the IC50 was 54.1 µM in assay [1] (read-out: inhibition of α-glucosidase IC50) and more than 1440 µM in assay [2] (setting [3]).
In the case of `CC1=C(O)C(=O)OC1C` (stereo not drawn) [Compound 16, sotolone], in assay [2] (setting [3]), the IC50 is more than 2000 µM.
